Tested on: 996289-038-R-J1-PDC spheroid viability
Assay: Anticancer human tumor 996289-038-R-J1-PDC patient-derived colon adenocarcinoma cell line growth inhibition [PI3K]
Details: spheroids with HUVEC and MSC; for IC50: curve of first compound; for viability, T/C: stronger effect = lower value
Method in brief: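 Viability of mixed-cell spheroids was determined after exposure to pairwise combinations, one partner being inavolisib, alpelisib, duvelisib or copanlisib. Highest tested concentration matched clinical Cmax where known and 10 microM where not, descending in half-log steps.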

[1] = second compound 0.00316 µM, first compound 0.0316 µM
[2] = second compound 0.00316 µM, first compound 0.1 µM
[3] = second compound 0.00316 µM, first compound 0.316 µM
[4] = second compound 0.00316 µM, first compound 1 µM
[5] = second compound 0.00316 µM, first compound 3.16 µM
[6] = second compound 0.00316 µM, first compound 10 µM
[7] = second compound 0.01 µM, first compound 0.0316 µM
[8] = second compound 0.01 µM, first compound 0.1 µM
[9] = second compound 0.01 µM, first compound 0.316 µM
[10] = second compound 0.01 µM, first compound 1 µM
[11] = second compound 0.01 µM, first compound 3.16 µM
[12] = second compound 0.01 µM, first compound 10 µM
[13] = second compound 0.0316 µM, first compound 0.0316 µM
[14] = second compound 0.0316 µM, first compound 0.1 µM
[15] = second compound 0.0316 µM, first compound 0.316 µM
[16] = second compound 0.0316 µM, first compound 1 µM
[17] = second compound 0.0316 µM, first compound 3.16 µM
[18] = second compound 0.0316 µM, first compound 10 µM
[19] = second compound 0.1 µM, first compound 0.0316 µM
[20] = second compound 0.1 µM, first compound 0.1 µM
[21] = second compound 0.1 µM, first compound 0.316 µM
[22] = second compound 0.1 µM, first compound 1 µM
[23] = second compound 0.1 µM, first compound 3.16 µM
[24] = second compound 0.1 µM, first compound 10 µM
[25] = second compound 0.316 µM, first compound 0.0316 µM
[26] = second compound 0.316 µM, first compound 0.1 µM
[27] = second compound 0.316 µM, first compound 0.316 µM
[28] = second compound 0.316 µM, first compound 1 µM
[29] = second compound 0.316 µM, first compound 3.16 µM
[30] = second compound 0.316 µM, first compound 10 µM
[31] = second compound 1 µM, first compound 0.0316 µM
[32] = second compound 1 µM, first compound 0.1 µM
[33] = second compound 1 µM, first compound 0.316 µM
[34] = second compound 1 µM, first compound 1 µM
[35] = second compound 1 µM, first compound 3.16 µM
[36] = second compound 1 µM, first compound 10 µM
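Note: spheroids exposed to compounds for seven days before viability read.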
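Throughout, for viability, T/C: luminescence used as a proxy for viable cell amount; percent viability relative to DMSO vehicle control as 100%.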

**Q.** `CC(Cn1ccc(-c2ccc(C#N)c(Cl)c2)n1)NC(=O)c1cc(C(C)O)[nH]n1` (stereo unspecified) + COc1c(OCCCN2CCOCC2)ccc2c3n(c(=NC(=O)c4cnc(N)nc4)nc12)CCN3 was tested. Which IC50 (second compound 0.00316 µM) did it give?
**A.** > 10 µM

**Q.** What about the IC50 (second compound 0.01 µM) of the same compound?
**A.** > 10 µM

**Q.** And the IC50 (second compound 0.0316 µM)?
**A.** > 10 µM

**Q.** And the IC50 (second compound 0.1 µM)?
**A.** > 10 µM

**Q.** What about the IC50 (second compound 0.316 µM) of the same compound?
**A.** < 0.0316 µM

**Q.** And the IC50 (second compound 1 µM)?
**A.** < 0.0316 µM

**Q.** And the viability, T/C [1]?
**A.** 103%

**Q.** What about the viability, T/C [2] of the same compound?
**A.** 91.1%

**Q.** And the viability, T/C [3]?
**A.** 98%

**Q.** And the viability, T/C [4]?
**A.** 99%

**Q.** What about the viability, T/C [5] of the same compound?
**A.** 96.9%

**Q.** And the viability, T/C [6]?
**A.** 102%

**Q.** What about the viability, T/C [7] of the same compound?
**A.** 90.5%

**Q.** And the viability, T/C [8]?
**A.** 97.2%

**Q.** And the viability, T/C [9]?
**A.** 92.6%

**Q.** And the viability, T/C [10]?
**A.** 93.1%

**Q.** And the viability, T/C [11]?
**A.** 103%

**Q.** And the viability, T/C [12]?
**A.** 89.7%

**Q.** What about the viability, T/C [13] of the same compound?
**A.** 69.7%

**Q.** And the viability, T/C [14]?
**A.** 79.4%

**Q.** And the viability, T/C [15]?
**A.** 85.6%

**Q.** And the viability, T/C [16]?
**A.** 80%

**Q.** What about the viability, T/C [17] of the same compound?
**A.** 78.9%

**Q.** What about the viability, T/C [18] of the same compound?
**A.** 78.7%

**Q.** And the viability, T/C [19]?
**A.** 55%

**Q.** What about the viability, T/C [20] of the same compound?
**A.** 56.6%

**Q.** And the viability, T/C [21]?
**A.** 66.7%

**Q.** What about the viability, T/C [22] of the same compound?
**A.** 64.8%

**Q.** What about the viability, T/C [23] of the same compound?
**A.** 72.3%

**Q.** What about the viability, T/C [24] of the same compound?
**A.** 56.1%

**Q.** What about the viability, T/C [25] of the same compound?
**A.** 34.1%

**Q.** What about the viability, T/C [26] of the same compound?
**A.** 38.9%

**Q.** And the viability, T/C [27]?
**A.** 40%

**Q.** And the viability, T/C [28]?
**A.** 41%

**Q.** What about the viability, T/C [29] of the same compound?
**A.** 40.5%

**Q.** And the viability, T/C [30]?
**A.** 39.9%

**Q.** And the viability, T/C [31]?
**A.** 25.2%

**Q.** And the viability, T/C [32]?
**A.** 17.5%

**Q.** What about the viability, T/C [33] of the same compound?
**A.** 23%

**Q.** And the viability, T/C [34]?
**A.** 18%

**Q.** What about the viability, T/C [35] of the same compound?
**A.** 22.1%

**Q.** What about the viability, T/C [36] of the same compound?
**A.** 17.5%

**Q.** Which IC50 (second compound 0.00316 µM) does the source give for `Cn1ncc(Cl)c1-c1cc(C(=O)NC(CN)Cc2cccc(F)c2)sc1Cl` (stereo unspecified) + COc1c(OCCCN2CCOCC2)ccc2c3n(c(=NC(=O)c4cnc(N)nc4)nc12)CCN3 here?
**A.** 5.06 µM

**Q.** And the IC50 (second compound 0.01 µM)?
**A.** 2.84 µM

**Q.** And the IC50 (second compound 0.0316 µM)?
**A.** 1.73 µM

**Q.** And the IC50 (second compound 0.1 µM)?
**A.** 0.212 µM

**Q.** What about the IC50 (second compound 0.316 µM) of the same compound?
**A.** < 0.0316 µM

**Q.** What about the IC50 (second compound 1 µM) of the same compound?
**A.** < 0.0316 µM

**Q.** What about the viability, T/C [1] of the same compound?
**A.** 99.4%

**Q.** And the viability, T/C [2]?
**A.** 93.6%

**Q.** What about the viability, T/C [3] of the same compound?
**A.** 82%

**Q.** What about the viability, T/C [4] of the same compound?
**A.** 73.2%

**Q.** What about the viability, T/C [5] of the same compound?
**A.** 56.8%

**Q.** And the viability, T/C [6]?
**A.** 39.7%

**Q.** What about the viability, T/C [7] of the same compound?
**A.** 92.4%

**Q.** What about the viability, T/C [8] of the same compound?
**A.** 87.1%

**Q.** What about the viability, T/C [9] of the same compound?
**A.** 74.2%

**Q.** And the viability, T/C [10]?
**A.** 59.9%

**Q.** And the viability, T/C [11]?
**A.** 54.8%

**Q.** And the viability, T/C [12]?
**A.** 26.7%

**Q.** What about the viability, T/C [13] of the same compound?
**A.** 81.6%

**Q.** And the viability, T/C [14]?
**A.** 66.5%

**Q.** What about the viability, T/C [15] of the same compound?
**A.** 70.9%

**Q.** What about the viability, T/C [16] of the same compound?
**A.** 62%

**Q.** And the viability, T/C [17]?
**A.** 37.6%

**Q.** What about the viability, T/C [18] of the same compound?
**A.** 23.7%

**Q.** What about the viability, T/C [19] of the same compound?
**A.** 60.3%

**Q.** And the viability, T/C [20]?
**A.** 59.4%

**Q.** And the viability, T/C [21]?
**A.** 44.6%

**Q.** What about the viability, T/C [22] of the same compound?
**A.** 37.3%

**Q.** What about the viability, T/C [23] of the same compound?
**A.** 31.3%

**Q.** What about the viability, T/C [24] of the same compound?
**A.** 20.5%

**Q.** What about the viability, T/C [25] of the same compound?
**A.** 34.8%

**Q.** What about the viability, T/C [26] of the same compound?
**A.** 33%

**Q.** And the viability, T/C [27]?
**A.** 32.8%

**Q.** What about the viability, T/C [28] of the same compound?
**A.** 32.3%

**Q.** And the viability, T/C [29]?
**A.** 30.5%

**Q.** What about the viability, T/C [30] of the same compound?
**A.** 15.1%

**Q.** And the viability, T/C [31]?
**A.** 18.3%

**Q.** And the viability, T/C [32]?
**A.** 19.7%

**Q.** What about the viability, T/C [33] of the same compound?
**A.** 17%

**Q.** And the viability, T/C [34]?
**A.** 23.1%

**Q.** What about the viability, T/C [35] of the same compound?
**A.** 20.1%

**Q.** What about the viability, T/C [36] of the same compound?
**A.** 11%

**Q.** How did the IC50 (second compound 0.00316 µM) turn out when `CC1(C)CCC(Nc2ncc(C(F)(F)F)c(-c3c[nH]c4c(P(C)(C)=O)c(C#N)ccc34)n2)CN1` (stereo unspecified) + COc1c(OCCCN2CCOCC2)ccc2c3n(c(=NC(=O)c4cnc(N)nc4)nc12)CCN3 was run?
**A.** 5.54 µM

**Q.** And the IC50 (second compound 0.01 µM)?
**A.** 5.12 µM

**Q.** And the IC50 (second compound 0.0316 µM)?
**A.** 4.48 µM

**Q.** What about the IC50 (second compound 0.1 µM) of the same compound?
**A.** 3.46 µM

**Q.** What about the IC50 (second compound 0.316 µM) of the same compound?
**A.** < 0.0316 µM

**Q.** What about the IC50 (second compound 1 µM) of the same compound?
**A.** < 0.0316 µM

**Q.** And the viability, T/C [1]?
**A.** 106%

**Q.** And the viability, T/C [2]?
**A.** 74.7%

**Q.** What about the viability, T/C [3] of the same compound?
**A.** 80%

**Q.** What about the viability, T/C [4] of the same compound?
**A.** 68.6%

**Q.** And the viability, T/C [5]?
**A.** 86.3%

**Q.** And the viability, T/C [6]?
**A.** 15%

**Q.** And the viability, T/C [7]?
**A.** 91.2%

**Q.** And the viability, T/C [8]?
**A.** 78.9%

**Q.** And the viability, T/C [9]?
**A.** 75.2%

**Q.** And the viability, T/C [10]?
**A.** 75.8%

**Q.** What about the viability, T/C [11] of the same compound?
**A.** 76.4%

**Q.** And the viability, T/C [12]?
**A.** 13.6%

**Q.** And the viability, T/C [13]?
**A.** 71.8%

**Q.** What about the viability, T/C [14] of the same compound?
**A.** 65.2%

**Q.** What about the viability, T/C [15] of the same compound?
**A.** 63.7%

**Q.** What about the viability, T/C [16] of the same compound?
**A.** 64.6%

**Q.** And the viability, T/C [17]?
**A.** 66%

**Q.** What about the viability, T/C [18] of the same compound?
**A.** 13%

**Q.** What about the viability, T/C [19] of the same compound?
**A.** 59.5%

**Q.** And the viability, T/C [20]?
**A.** 53.4%

**Q.** And the viability, T/C [21]?
**A.** 52.1%

**Q.** What about the viability, T/C [22] of the same compound?
**A.** 49.7%

**Q.** And the viability, T/C [23]?
**A.** 53.7%

**Q.** What about the viability, T/C [24] of the same compound?
**A.** 8.16%

**Q.** What about the viability, T/C [25] of the same compound?
**A.** 34.6%

**Q.** And the viability, T/C [26]?
**A.** 30.2%

**Q.** And the viability, T/C [27]?
**A.** 34%

**Q.** What about the viability, T/C [28] of the same compound?
**A.** 34%

**Q.** And the viability, T/C [29]?
**A.** 28.5%

**Q.** And the viability, T/C [30]?
**A.** 6.2%

**Q.** What about the viability, T/C [31] of the same compound?
**A.** 17%

**Q.** What about the viability, T/C [32] of the same compound?
**A.** 14.3%

**Q.** What about the viability, T/C [33] of the same compound?
**A.** 15.9%

**Q.** And the viability, T/C [34]?
**A.** 17%

**Q.** And the viability, T/C [35]?
**A.** 15.1%

**Q.** And the viability, T/C [36]?
**A.** 4.85%

Reference: PubChem BioAssay AID1963965 (Molecular Pharmacology Branch, DTP, NCI, 2024)
